Assay results taken from US11833254B2, “Discoidal nano universal platform for efficient delivery of PNAs” (University of Connecticut, priority 2020, dated 2023).
{ooo} = Boc-miniPEG-3 linker between TAMRA and the PNA; {TAMRA} = TAMRA dye conjugated to the PNA N-terminus; {Lys} = C-terminal lysine residue of the PNA

Assay: Negative-stain transmission electron microscopy (TEM) of lipid/PNA complexes
Type: physicochemical
Protocol: Transmission electron microscopy (TEM): Negatively-stained transmission electron microscopic (TEM) images were obtained using FEI Tecnai T12. The samples were prepared by spreading 5 μL 0.001 wt. % solution on a 400 mesh Formvar/carbon film copper grid (Electron Microscopy Sciences, PA, USA) and negative staining was applied with 10 mg/mL of Uranyl acetate (SPI Supplies, PA, USA). The grids were then dried at 25° C. The accelerating voltage of the TEM was set at 80 kV.

Row | Substance | morphology (TEM)
1 | 5′ TAMRA-ooo-ACCCCTATCACGATTAGCATTAA-Lys 3′ (all peptide nucleic acid (PNA), 5' {TAMRA}-{ooo}, 3' {Lys}) [PNA-155] | uniform discoidal morphology
2 | 5′ TAMRA-ooo-TCAGCCGCTGTCACACGCACAG-Lys-3′ (all peptide nucleic acid (PNA), 5' {TAMRA}-{ooo}, 3' {Lys}) [PNA-210] | uniform discoidal morphology
